We go through two compounds from paper PMC7811981 (European Journal of Drug Metabolism and Pharmacokinetics, 2020).

Where two headings read alike, the source gives them in different places. Bounds are passed on as bounds.

The AUC(0-inf) is the area under the concentration-time curve extrapolated to infinity. Read a high AUC(0-inf) as high exposure. As a reminder, the Cmax is the peak of the concentration-time curve. Broadly, the Tmax is the time at which the peak concentration occurs. As a reminder, the half-life is the time in which the quantity being followed falls by half. A low value points to fast loss. As usually defined, the bioavailability is the share of a dose that reaches the circulation, judged against a reference dose that is usually intravenous. Low readings indicate poor availability, high ones good availability.

Series [1] in a line: Safety and tolerability assessments. In kind it is in vivo, healthy adults (human). Particulars: for Safety and tolerability: healthy adults.
For series [2] the following is noted: phase I studies; cited from earlier work.
In the next series the test system is P-glycoprotein (P-gp). Particulars: cited from earlier work.
The format of series [3] is in vivo, healthy adults (human). The note with it: for AUC(0-inf) / Cmax / Tmax / half-life / AUC(0-t): human, plasma; for AUC(0-t): Period 2: omadacycline with verapamil, linear mixed-effect model.
For a further series, the system named is P-gp. It counts as in vivo, healthy adults (human). Particulars: human, not told, po.
The conditions of series [4]: period 2, single oral 240 mg verapamil ER; data not shown.
The mark [5] stands for this setting: Period 2/Period 1 (with verapamil / alone).

On to `CN(C)c1cc(CNCC(C)(C)C)c(O)c2c1C[C@H]1C[C@H]3[C@H](N(C)C)C(O)=C(C(N)=O)C(=O)[C@@]3(O)C(O)=C1C2=O` [Omadacycline], for which the “Clinical laboratory test results, vital sign measurements, physical examination findings, 12-lead ECG results” value in series [1] (omadacycline alone and with verapamil ER) was “no clinically relevant findings”. Besides, the Safety and tolerability result in series [1] (single oral 300 mg omadacycline plus 240 mg verapamil ER) was “safe and well tolerated”. The Safety and tolerability result in series [1] (single oral dose 300 mg omadacycline alone) was “safe and well tolerated”. The “Exposure of 300 mg oral dose versus 100 mg IV dose” value in series [2] is given as “comparable exposure”. Also, in the series on P-glycoprotein (P-gp) (in vitro studies), the P-gp interaction entry is “substrate, but not as an inhibitor” and the “Propensity to permeate across the gastrointestinal (GI) tract” value is recorded as “low propensity to permeate”. The P-gp interaction entry in the series with P-glycoprotein (P-gp) (in vitro transporter studies in CaCo cells) is “substrate of P-gp (but not an inhibitor or inducer)”. Besides, in series [3] (Period 1: omadacycline alone, 300 mg oral, N = 12), the “λz terminal phase rate constant, arithmetic mean (arithmetic coefficient of variation)” value is 0.1 (11.2) l/h. In series [3] (setting [5]), the “AUC0–24, ratio of geometric LS mean” value was found to be 118.5%; the “AUC0–inf, ratio of geometric LS mean” value is given as 124.6%; the “AUC0–t, ratio of geometric LS mean” value came out at 118.6%; the “Cmax, ratio of geometric LS mean” value was 113.6%. In series [3] (Period 2: omadacycline with verapamil ER 240 mg, N = 10), the “λz terminal phase rate constant, arithmetic mean (arithmetic coefficient of variation)” value is given as 0.05 (10.7) l/h. Moreover, the “Increase in systemic exposure to omadacycline (AUC0–24, AUC0–t, AUC0–inf, Cmax)” value in series [3] (after single oral 240 mg verapamil ER compared with omadacycline alone) is 14–25%. The “Plasma concentrations measurable up to (last sampling time)” value in series [3] (both treatment periods, all instances) was 24 h. The “Time postdose within which Cmax was attained (visual inspection)” value in series [3] (both treatment periods, mean plasma concentration-time profiles) is listed as at most 3 h. In series [3] (oral), this compound yielded an AUC(0-inf) of 10800 ng·h/mL and a Cmax of 607 ng/mL. Further, in series [3] (oral, 240 mg), the AUC(0-inf) worked out at 10800 ng·h/mL, the Cmax amounted to 596 ng/mL, the Tmax amounted to 2.8 h and the half-life was 840 min. In series [3] (oral, 300 mg), this compound showed an AUC(0-inf) of 8690 ng·h/mL and a Cmax of 534 ng/mL. This compound also yielded an AUC(0-t) in series [3] (oral, AUC0–24, geometric LS mean, N = 10) of 7340 ng·h/mL. This compound displayed an AUC(0-t) in series [3] (oral, AUC0–t, geometric LS mean, N = 10) of 7340 ng·h/mL. Further, in series [3] (po, 300 mg), the AUC(0-inf) was found to be 8690 ng·h/mL, the highest level (Cmax) was 534 ng/mL, the Tmax is 2.8 h and the half-life is 762 min. Further, in series [3] (period 2 (after verapamil) vs period 1), the “AUC measures (AUC0–24, AUC0–t, AUC0–inf) higher than omadacycline alone” value is reported as 18–25%. The “Increase in geometric mean of AUC0–inf” value in series [3] (verapamil dosing compared with omadacycline alone) was 18–25%. In addition, the “Increase in bioavailability by inhibition of P-gp (as much as)” value in series [3] (with verapamil, relative increase) is reported as at most 25.0%. Further, the bioavailability with P-gp is about 43.1%.
Regarding `COc1ccc(CCN(C)CCCC(C#N)(c2ccc(OC)c(OC)c2)C(C)C)cc1OC` (centres unmarked) [verapamil], the “Plasma concentrations measurable from 2 h after administration up to (last sampling time)” value in series [4] came out at 24 h.
